Assay results published in the NIST ThermoML archive (doi:10.1016/j.jct.2017.11.011).

Experiments:
[1] = 101.33 kPa, Liquid, Vibrating tube method
[2] = relative permittivity at various frequencies (dimensionless); settings: 100 kPa, Liquid, Frequency=1 MHz, Parallel plate capacitor
[3] = relative permittivity at various frequencies (dimensionless); xn = mol fraction of the nth substance listed; settings: 100 kPa, Liquid, Frequency=1 MHz, Parallel plate capacitor

Nc1ccccc1 [aniline]
Settings | mass density, 293.15 K [kg/m3] | mass density, 298.1 K [kg/m3] | mass density, 303.15 K [kg/m3] | relative permittivity, 293.15 K | relative permittivity, 298.15 K | relative permittivity, 303.15 K
[1] | 1021.79 | 1017.52 | 1013.19 | – | – | –
[2] | – | – | – | 7.117 | 6.984 | 6.856

Nc1ccccc1 [aniline] + CN(C)C=O
relative permittivity, [3]
Settings | 293.15 K | 298.15 K | 303.15 K
x2 = 0 | 7.117 | 6.984 | 6.856
x2 = 0.0533 | 8.91 | 8.729 | 8.557
x2 = 0.1046 | 10.653 | 10.426 | 10.2
x2 = 0.1562 | 12.414 | 12.144 | 11.876
x2 = 0.2033 | 14.004 | 13.689 | 13.383
x2 = 0.3015 | 17.269 | 16.874 | 16.485
x2 = 0.4071 | 20.625 | 20.146 | 19.678
x2 = 0.5013 | 23.428 | 22.895 | 22.371
x2 = 0.5999 | 26.184 | 25.601 | 25.026
x2 = 0.6989 | 28.955 | 28.31 | 27.687
x2 = 0.7931 | 31.604 | 30.92 | 30.246
x2 = 0.8431 | 33.12 | 32.402 | 31.69
x2 = 0.8982 | 34.833 | 34.071 | 33.315
x2 = 0.9459 | 36.439 | 35.62 | 34.821

CN(C)C=O [dimethylformamide]
[2]
Settings | relative permittivity
293.15 K | 38.334
298.15 K | 37.44
303.15 K | 36.58

CN(C)C=O [dimethylformamide] + Nc1ccccc1
[3], x1 = 1
Settings | relative permittivity
293.15 K | 38.334
298.15 K | 37.44
303.15 K | 36.58
